Data on one molecule can be found in US11274332B2, “Methods of administering 3,4-diaminopyridine” (SERB SA, priority 2011, dated 2022).

Data set [1] concerns human hepatocytes. Nature of the data set: In vitro metabolism of 14C-amifampridine in human hepatocytes (Example 3). It counts as in vitro ADME. Conditions: multiple donors. As for the experimental part:
(§1) The objective of this hepatocyte study was to determine the extent of metabolism, complete metabolic profile and metabolite characterization of amifampridine phosphate in several species with ^14C-amifampridine phosphate for a cross species comparison. The following procedures were used to study the metabolism in rat (Example 1), dog (Example 2), and human hepatocytes (Example 3).
(§2) The cryopreserved hepatocytes were removed from storage, quickly thawed in a 37° C. water bath for 1 to 2 min, and transferred to a 50 ml tube containing pre-warmed InVitroGRO HT medium (Celsis Inc., Baltimore). The cell suspension was mixed by gentle inversion and the cells were pelleted by centrifugation at 50 to 75×g for 5 min. The supernatant medium was removed and the cells were resuspended in Williams' Medium E. Hepatocyte viability was assessed by using trypan blue exclusion. Hepatocyte density was determined by counting cells with a hemocytometer and the density was adjusted with Williams' Medium E to achieve a final density of 1,000,000 cells/mL. […] The supernatant medium was removed and the cells were resuspended in cold Williams' Medium E. The cell density was then determined using a hemocytometer and the density was adjusted with Williams' Medium E to achieve a final density of 1,000,000 cells/mL. […]

The test system of data set [2] is dog hepatocytes. Nature of the data set: In vitro metabolism of 14C-amifampridine in dog hepatocytes (Example 2). It counts as in vitro ADME. As for the experimental part:
as §1, §2

With `Nc1ccncc1N` [3,4-DAP, 3,4-diaminopyridine], the “formation of single major acetylated amifampridine metabolite” value in data set [1] is reported as “variable”. Further, the “conversion of 3,4-DAP to its metabolite” value in data set [2] was “No conversion”.
